The source made the active and inactive calls. The calls are words filed in the database; no cut-off is given here.
Assays:
Salinivibrio costicola = test: Antimicrobial activity against Vibrio costicola assessed as growth inhibition at 50 ug/disk after 48 hrs by paper disk method; assay type: functional, organism-based
Jurkat = test: Growth inhibition of human Jurkat cells after 96 hrs by EZ-CyTox cell viability assay; assay type: functional, cell-based
K562 = test: Growth inhibition of human K562 cells after 96 hrs by EZ-CyTox cell viability assay; assay type: functional, cell-based; conditions: K562, 96 h
HL-60 = test: Growth inhibition of human HL60 cells after 96 hrs by EZ-CyTox cell viability assay; assay type: functional, cell-based; conditions: HL-60, 96 h
Candida albicans = test: Antimicrobial activity against Candida albicans assessed as growth inhibition at 50 ug/disk after 48 hrs by paper disk method; assay type: functional, organism-based
HepG2 = test: Growth inhibition of human HepG2 cells after 96 hrs by EZ-CyTox cell viability assay; assay type: functional, cell-based; conditions: HepG2, 96 h
Escherichia coli = test: Antimicrobial activity against Escherichia coli assessed as growth inhibition at 50 ug/disk after 48 hrs by paper disk method; assay type: functional, organism-based
Staphylococcus aureus = test: Antimicrobial activity against Staphylococcus aureus assessed as growth inhibition at 50 ug/disk after 48 hrs by paper disk method; assay type: functional, organism-based
Aspergillus fumigatus = test: Antimicrobial activity against Aspergillus fumigatus assessed as growth inhibition at 50 ug/disk after 48 hrs by paper disk method; assay type: functional, organism-based
Bacillus subtilis = test: Antimicrobial activity against Bacillus subtilis assessed as growth inhibition at 50 ug/disk after 48 hrs by paper disk method; assay type: functional, organism-based

C/C=C1\C[C@H]2CNc3ccccc3C(=O)N2C1
growth inhibition (GI) (Salinivibrio costicola): inactive
IC50 (Jurkat): 23.9 µM
IC50 (K562): 58.8 µM
IC50 (HL-60): 64.5 µM
growth inhibition (GI) (Candida albicans): inactive
IC50 (HepG2): 68.9 µM
growth inhibition (GI) (Escherichia coli): inactive
growth inhibition (GI) (Staphylococcus aureus): inactive
growth inhibition (GI) (Aspergillus fumigatus): inactive
growth inhibition (GI) (Bacillus subtilis): inactive

COc1cccc2c1NC[C@@H]1CC(C(C)=O)=CN1C2=O
growth inhibition (GI) (Salinivibrio costicola): inactive
IC50 (Jurkat): 72 µM
IC50 (K562): > 100 µM
IC50 (HL-60): > 100 µM
growth inhibition (GI) (Candida albicans): inactive
IC50 (HepG2): 56.1 µM
growth inhibition (GI) (Escherichia coli): inactive
growth inhibition (GI) (Staphylococcus aureus): inactive
growth inhibition (GI) (Aspergillus fumigatus): inactive
growth inhibition (GI) (Bacillus subtilis): inactive

C/C=C1\C[C@H]2CNc3c(OC)cccc3C(=O)N2C1 [USABAMYCIN B]
growth inhibition (GI) (Salinivibrio costicola): inactive
IC50 (Jurkat): 6.26 µM
IC50 (K562): 10.1 µM
IC50 (HL-60): 13.5 µM
growth inhibition (GI) (Candida albicans): inactive
IC50 (HepG2): 10.6 µM
growth inhibition (GI) (Escherichia coli): inactive
growth inhibition (GI) (Staphylococcus aureus): inactive
growth inhibition (GI) (Aspergillus fumigatus): inactive
growth inhibition (GI) (Bacillus subtilis): inactive

C/C=C1\C[C@H]2C(=O)Nc3c(OC)cccc3C(=O)N2C1
growth inhibition (GI) (Salinivibrio costicola): inactive
IC50 (Jurkat): > 100 µM
IC50 (K562): > 100 µM
IC50 (HL-60): > 100 µM
growth inhibition (GI) (Candida albicans): inactive
IC50 (HepG2): > 100 µM
growth inhibition (GI) (Escherichia coli): inactive
growth inhibition (GI) (Staphylococcus aureus): inactive
growth inhibition (GI) (Aspergillus fumigatus): inactive
growth inhibition (GI) (Bacillus subtilis): inactive

— ChEMBL document CHEMBL3232720, “Boseongazepines A-C, pyrrolobenzodiazepine derivatives from a Streptomyces sp. 11A057” (Bioorg Med Chem Lett, 2014)
